Results taken from patent US20020127287A1, “Treatment of lyso paf-mediated disorders with lyso paf or paf antagonists and procedure for determining their efficacy” (priority 1990, published 2002).

What was measured:
[1] = target: T1, paf receptors on neutrophils (PMN) (Homo sapiens, UniProt P25105); assay: [^3H]paf binding to intact human neutrophils (PMN); settings: for [^3H]paf binding: 20° C., 30 min
T1 construct: Neutrophils (PMN) were prepared from venous blood (40 ml) from normal donors; endogenous in cells; host or cells: intact neutrophils (PMN) from venous blood of normal donors
T1 sequence (P25105 whole entry): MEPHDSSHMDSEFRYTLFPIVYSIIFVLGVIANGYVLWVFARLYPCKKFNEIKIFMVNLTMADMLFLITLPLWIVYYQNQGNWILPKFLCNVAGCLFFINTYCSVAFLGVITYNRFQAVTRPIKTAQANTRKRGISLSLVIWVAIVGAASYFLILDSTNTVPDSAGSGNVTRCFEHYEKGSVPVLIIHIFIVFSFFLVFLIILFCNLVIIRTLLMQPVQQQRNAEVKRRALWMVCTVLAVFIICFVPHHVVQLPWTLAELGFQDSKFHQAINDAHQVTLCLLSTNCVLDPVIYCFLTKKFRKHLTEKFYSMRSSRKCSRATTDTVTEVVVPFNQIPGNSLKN
Method: (§2) Neutrophils (PMN) were prepared from venous blood (40 ml) from normal donors, anticoagulated with citric acid dextrose (7:1, v/v) was sedimented for 30 to 45 min in gelatin 0.3% final (Plasmagel®). Twenty ml of supernatant were layered on 10 ml Ficoll Hypaque (d=1.077) and centrifuged (400×g, 20 min, 20° C.). The cell pellet containing PMN (95%) was resuspended in 500 μl Tyrode's buffer (pH=7.4). Erythrocyte lysis was performed by adding 3 volumes of distilled water for 40 sec. followed by 1 volume NaCl (3.5%, w/v). PMN were then washed twice in Tyrode's buffer (centrifugation at 370×g at 20° C. for 10 min). Cell concentration was adjusted to 5×10^7 per ml.
(§3) Binding studies were performed using, for example, intact neutrophils (PMN) or intact human blood eosinophils. PMN (2.5×10^6) or eosinophils (2.5×10^5) were suspended in 500 μl Tyrode's buffer supplemented with 1.3 mM CaCl2, 1 mM MgCl2 and 0.25% (v/v) fatty acid-free bovine serum albumin (BSA, w/v) were incubated with [^3H]paf (0.325-6.5 nM) either for 30 min at 20° C. or for 20 hrs at 4° C. Non-specific binding was assessed with the unlabeled ligands either paf (500 nM) or the receptor antagonist WEB 2086 (1 μM or 400 nM).
In a second set of experiments, [^3H]paf binding was performed by adding 3.25 nM [^3H]paf to PMN, simultaneously with low dose (5 to 50 nM) of paf, lyso paf, the enantiomer of paf or 2-lyso phosphatidylcholine (LPC) for 30 min at 20° C. [^3H]paf binding was also measured in the presence of the phorbol ester 4-phorbol-12-myristate-13-acetate (PMA, 1 to 16 nM) either added simultaneously with [^3H]paf or preincubated 15 min at 37° C. previously. […] After the binding procedure, cells were separated from their suspending medium by filtration in a millipore vacuum system with GF/C filters. Filters were washed with 10 ml Tyrode's buffer at 4° C. and radioactivity was assessed by scintillation. Cell-bound radioactivity on the filters after subtraction of blanks (filter-bound radioactivity in the absence of cells) was expressed in fmol [^3H]paf bound per 2.5×10^6 PMN or 2.5×10^5 eosinophils.

[2] = tested on: lyso paf receptors on neutrophils (PMN); assay: [^3H]lyso paf binding to neutrophils (PMN); set-up: species or system human; settings: 20° C.
Method: as §2
The binding of [^3H]lyso paf (0.325-0.5 nM) was measured after 30 min incubation at 20° C. in the absence or presence of an excess of unlabeled lyso paf (500 nM), paf (500 nM) or WEB 2086 (1 μM). The effect of low dose paf (5 nM) on the binding of [^3H]lyso paf was also investigated. […] After the binding procedure, cells were separated from their suspending medium by filtration in a millipore vacuum system with GF/C filters. Filters were washed with 10 ml Tyrode's buffer at 4° C. and radioactivity was assessed by scintillation. Cell-bound radioactivity on the filters after subtraction of blanks (filter-bound radioactivity in the absence of cells) was expressed in fmol [^3H]paf bound per 2.5×10^6 PMN or 2.5×10^5 eosinophils.

[3] = target: T2, paf receptors on eosinophils (Homo sapiens, UniProt P25105); assay: [^3H]paf binding to intact human eosinophils; settings: for specific [^3H]paf binding: 20° C., 30 min
T2 construct: endogenous in cells; host or cells: intact human blood eosinophils (about 96% pure)
T2 sequence (P25105 whole entry): as above
Method: Eosinophils were also prepared under sterile conditions. Blood (400 ml) was mixed with 10% (v/v) dextran. The supernatant was carefully deposited on a metrizoate/ficoll suspension (d=1.148) after sedimentation of red blood cells and centrifuged (400×g: 40 min). Erythrocyte lysis was performed by adding 3 v. of distilled water for 40 sec, followed by 1 v. NaCl (3.5%, w/v). Cells were suspended in 500 μl pH 7.4 Tyrode's buffer, centrifuged (1900 rpm×10 min) and resuspended (5×10^6 cells/ml) in Tyrode's (0.25% BSA) without Ca^2+. The eosinophils fraction at 1×10^6 cells/ml contained 96±5% eosinophils, 3±3% neutrophils, 1±2% mononuclear cells and no free platelets (mean±s.d., n=3).
as §3
Eosinophils were added to Tyrode's (0.25% BSA, 1.3 mM CaCl2, 1 mM MgCl2) containing [3H]paf (0.325-6.5 nM) in the absence or presence of unlabeled paf, lyso paf, enantio-paf or lyso-phosphatidylcholine (LPC) (5, 10, 50, 500 nM) and/or the specific paf receptor antagonist WEB 2086 (400 nM). After the binding procedure, cells were separated from their suspending medium by filtration in a millipore vacuum system with GF/C filters. Filters were washed with 10 ml Tyrode's buffer at 4° C. and radioactivity was assessed by scintillation. Cell-bound radioactivity on the filters after subtraction of blanks (filter-bound radioactivity in the absence of cells) was expressed in fmol [^3H]paf bound per 2.5×10^6 PMN or 2.5×10^5 eosinophils.

PMN = assay: cytosolic free calcium (fura-2) in PMN; type: cell-based, human; settings: 1 to 500 nM; CaCl2 1.3 mM or EGTA 2 mM
Method: (§1) The concentration of cytosolic free calcium [Ca^2+]i was measured using the [Ca^2+]i indicator fura-2-acetoxymethyl ester (fura-2). […] The spectrofluorophotometer was programmed to shuttle between the two excitation wavelengths of 340 and 380 nm every 5 sec while keeping the emission wavelength of 505 nm. […] Background values were subtracted from all data. The intracellular Ca^2+ was calculated with the formula [[…] is KD of the fura-2 multiplied with the quotient of the fluorescence at 380 nm from the minimal and the maximal [Ca^2+]i fluorescence.

eosinophils [4] = assay: cytosolic free calcium (fura-2) in eosinophils; type: cell-based, human; settings: 1-100 nM; Ca^2+ free buffer, EGTA 2 mM
Method: as §1

eosinophils [5] = assay: paf metabolism by intact eosinophils; type: in vitro ADME, human; settings: binding conditions
Method: Cells were then separated by vacuum filtration and phospholipids were extracted. Briefly, filters were placed in 500 μl water. […] High pressure liquid chromatography (HPLC) was performed using standard procedure with dichloromethane/methanol/water (50:50.5, by vol) and eluted with a flow rate of 1 ml/min. The radioactivity was measured in the fractions after subtraction of the background values.

platelets = assay: paf-mediated platelet aggregation; type: cell-based; settings: BSA […]; for EC50: Platelet, 0.05 h, 3 min aggregation
Method: (§4) Results are expressed as mean±S.D. or S.E. and statistics were performed using the “Mann Whitney” test (n=3, n=5 or n=6 as indicated).

human platelets = assay: acetylhydrolase release from activated platelets; type: cell-based; settings: Thrombin 0.5 IU/ml; for acetylhydrolase release: Paf 500 nM
Method: as §4

acetylhydrolase = acetylhydrolase activity, kinetic constants; type: biochemical, human
Method: Acetylhydrolase activity was measured in lysates of resting platelets or platelets stimulated with thrombin (0.5 IU/ml, 1 min, 37° C.), in supernatants of thrombin-activated platelets with or without acid-treated (inactivation of acetylhydrolase) plasma and in native plasma. Samples were incubated for 10 min at 37° C. in the presence of 0.1 μCi [^3H]acetyl paf and concentrations of unlabeled paf varying from 5 to 35 μM. The microenvironment modulates the acetylhydrolase indicating the origin of plasma acetylhydrolase from activated platelets.

U 937 cells = assay: cAMP levels of U 937 cells; type: cell-based
Method: U 937 cells were grown in stationary suspension culture in RPMI 1640 containing 10% fetal calf serum (FCS) and 2 mM L-glutamine at 37° C. in a humidified atmosphere of 5% CO2 and 95% air. The cells were diluted with fresh medium (1/10, v/v) twice a week. After three days in culture, U 937 cells were centrifuged (1000×G for 10 min) and incubated for 24 hrs in RPMI 1640 medium containing 10% CPSR 1 (delipidated FCS) and 2 mM L-glutamine. Subsequently the cells were incubated in the delipidated FCS medium containing cholesterol (10-60 μg/ml), as compared with solvent alone (ethanol, 0.5% v/v, final concentration) for (2, 4 or 24 hrs).
Cyclic AMP in supernatants from cholesterol-treated and control cells, were measured by the Rianen [^125I]cAMP-RIA Kit. Briefly, cholesterol (60 μg/ml, 24 hrs) or cholesterol vehicle (ethanol) were added after 24 hrs cell incubation in delipidated FCS medium. Cells were subsequently washed three times and resuspended (5×10^6, final concentration) in Hanks Hepes (HH)-buffer, pH 7.4 with ascorbinic acid (10 mM) and cAMP-phosphodiesterase inhibitor IBMX (1 mM). Cell suspension (100 μl) was added to 400 μl of the cAMP buffer for 30 min at 20° C. […] Values are from one experiment (representative of three) expressed as pmol cAMP per 10^6 cells. Total proteins were measured by standard procedure.

[6] = source of acetylhydrolase: (1) Platelets
[7] = source of acetylhydrolase: (2) Thrombin-activated platelets
[8] = source of acetylhydrolase: (3) Supernatant from (2)
[9] = source of acetylhydrolase: (4) Native plasma

CCCCCCCCCCCCCCCCCCOC[C@H](COP(=O)([O-])OCC[N+](C)(C)C)OC(C)=O [paf, 1-octadecyl-2-acetyl-sn-glycero-3-phosphocholine]
Kd ([1]; 4° C.): 0.44 nM | binding sites (high affinity) on neutrophils ([1]; 4° C.): 3612 binding sites | [^3H]paf binding ([1]; Add. 5 nM, WEB 2086 1 μM): 376 ± 21 fmol [^3H]paf bound per 2.5×10^6 PMN | [^3H]paf binding ([1]; paf 5 nM, preincubation 0 min at 37° C.): 414 fmol [^3H]paf bound per 2.5×10^6 PMN | [^3H]paf binding ([1]; paf 5 nM, preincubation 15 min at 37° C.): 331 fmol [^3H]paf bound per 2.5×10^6 PMN | effect of excess unlabeled ligand on [^3H]paf binding ([1]; paf 500 nM, WEB 2086 1 μM): inhibited | effect of unlabeled ligand on [^3H]lyso paf binding ([2]; excess unlabeled paf or lyso paf 500 nM, WEB 2086 1 μM): increased | binding of […] [^3H]lyso paf ([2]; paf 5 nM, increased from 197.0±4.5): 255.0±10.5 fmol per 2.5×10^6 PMN | binding sites per eosinophil [3]: 8.6×10^4 sites per eosinophil | specific [^3H]paf binding, maximal plateau values ([3]; 20 hrs at 4° C., assessed with unlabeled paf 500 nM or WEB 2086 400 nM): 14.0±9.0 fmol per 2.5×10^5 cells | Kd ([3]; 20 hrs at 4° C., read-out: binding affinity (Kd) on eosinophils): 5.5 nM | specific [^3H]paf binding ([3]; addition 5 nM, WEB 2086 400 nM): 3.8 ± 5.0 fmol per 2.5×10^5 cells | specific [^3H]paf binding ([3]; addition 10 nM, WEB 2086 400 nM): 4.3 ± 2.9 fmol per 2.5×10^5 cells | specific [^3H]paf binding ([3]; addition 50 nM, WEB 2086 400 nM): 7.2 ± 5.4 fmol per 2.5×10^5 cells | specific [^3H]paf binding ([3]; addition 500 nM): 12.5 ± 6.9 fmol per 2.5×10^5 cells | cytoplasmic Ca^2+ flux in response to agonist (PMN): concentration-dependent entry of Ca^2+ | [Ca^2+]i rise in response to agonist (eosinophils [4]): concentration-dependent elevation of [Ca^2+]i | metabolism of added paf (eosinophils [5]): did not metabolize | concentration for maximal aggregation (platelets; 20° C.): 2.6 ± 0.5 nM | concentration for maximal aggregation (platelets; 37° C.): 5.0 ± 0.5 nM | EC50 (platelets; 20° C.): 0.4 ± 0.1 nM | EC50 (platelets; 37° C.): 0.9 ± 0.2 nM | released of the total acetylhydrolase (human platelets; paf 500 nM, mean±S.E., n=3): 10.3±1.5% | acetylhydrolase release (human platelets; stimulation 0 sec): 1.0 ± 1.0 percentage of the total content of acetylhydrolase | acetylhydrolase release (human platelets; stimulation 15 sec): 8.2 ± 3.2 percentage of the total content of acetylhydrolase | acetylhydrolase release (human platelets; stimulation 30 sec): 7.8 ± 2.6 percentage of the total content of acetylhydrolase | acetylhydrolase release (human platelets; stimulation 60 sec): 9.5 ± 4.0 percentage of the total content of acetylhydrolase | acetylhydrolase release (human platelets; stimulation 120 sec): 10.0 ± 1.4 percentage of the total content of acetylhydrolase | acetylhydrolase release (human platelets; stimulation 180 sec): 12.6 ± 3.8 percentage of the total content of acetylhydrolase | acetylhydrolase release (human platelets; stimulation 300 sec): 10.3 ± 1.5 percentage of the total content of acetylhydrolase | Km (acetylhydrolase; [6]): 8.3 ± 1.5 µM | Vmax (acetylhydrolase; [6]): 0.3 nmol/min/mg prot. | Km (acetylhydrolase; [7]): 10.6 ± 1.5 µM | Vmax (acetylhydrolase; [7]): 0.3 nmol/min/mg prot. | Km (acetylhydrolase; [8]): 7.9 ± 1.5 µM | Vmax (acetylhydrolase; [8]): 1.4 nmol/min/mg prot. | Km (acetylhydrolase; [9]): 5.3 ± 0.5 µM | Vmax (acetylhydrolase; [9]): 1.4 nmol/min/mg prot. | cAMP in response to paf (U 937 cells): dose dependent fall in cAMP
